Laboratory results published in article PMC3629565, “Sphingolipid synthesis and scavenging in the intracellular apicomplexan parasite, Toxoplasma gondii” (Molecular and Biochemical Parasitology, 2013).

Target: T1, TgSLS (Toxoplasma gondii, UniProt A0A2U9EWT7)
T1 construct: parasites elsewhere RH, locus tag of ME49), pRS426MET25 in S. cerevisiae YPH499-HIS-GAL-AUR1, CHAPS-washed microsomes; no tag mentioned
T1 sequence (A0A2U9EWT7 1-427): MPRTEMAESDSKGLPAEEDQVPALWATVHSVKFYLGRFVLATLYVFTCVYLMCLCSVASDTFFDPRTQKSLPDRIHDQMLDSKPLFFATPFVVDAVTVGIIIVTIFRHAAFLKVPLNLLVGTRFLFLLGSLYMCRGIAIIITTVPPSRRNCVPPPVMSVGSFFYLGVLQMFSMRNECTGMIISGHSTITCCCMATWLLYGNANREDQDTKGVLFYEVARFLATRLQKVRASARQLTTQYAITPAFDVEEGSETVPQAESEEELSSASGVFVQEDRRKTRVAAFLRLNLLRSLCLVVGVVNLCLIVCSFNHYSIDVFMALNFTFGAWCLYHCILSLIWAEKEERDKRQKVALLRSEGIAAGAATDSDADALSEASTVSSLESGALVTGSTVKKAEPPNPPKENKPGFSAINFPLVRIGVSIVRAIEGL
Assay: IPC formation by CHAPS-washed yeast microsomes, HPTLC fluorescence
Type: biochemical
Settings: acceptor substrate at 5 μM; donor 1 mM bovine liver phosphatidylinositol; 10 mM EDTA, 6 mg/ml BSA, 30 °C, 60 min; labelled compound

CCCCCCCCCCCCC/C=C/[C@@H](O)[C@H](CO)NC(=O)CCCCCNc1ccc([N+](=O)[O-])c2nonc12 [NBD C6-ceramide]
IPC formation by CHAPS-washed yeast microsomes, HPTLC fluorescence: reaction of CHAPS-washed TgSLS extract with acceptor substrate NBD-C6-ceramide
